Consider 19 molecules from ChEMBL document CHEMBL2331451, “Discovery of (1R,2R)-N-(4-(6-isopropylpyridin-2-yl)-3-(2-methyl-2H-indazol-5-yl)isothiazol-5-yl)-2-methylcyclopropanecarboxamide, a potent and orally efficacious mGlu5 receptor negative allosteric modulator” (Bioorg Med Chem Lett, 2013).

For one series, the species on record is Homo sapiens. In words: Selectivity ratio of IC50 for human recombinant mGlu1 receptor to IC50 for human recombinant mGlu5 receptor.
The target of series [1] is Metabotropic glutamate receptor 1 (Homo sapiens, UniProt Q13255). In words: Negative allosteric modulation of human recombinant mGlu1 receptor expressed in Syrian hamster AV12 cells assessed as receptor-mediated changes in intracellular calcium concentration by FLIPR assay. The series is classed as functional, cell-based. (In general: Calcium flux is commonly read through the fluorescence of an indicator in the cells.)

Series [2] addresses Metabotropic glutamate receptor 5 (Homo sapiens, UniProt P41594). In words: Negative allosteric modulation of human recombinant mGlu5 receptor expressed in Syrian hamster AV12 cells assessed as receptor-mediated changes in intracellular calcium concentration by FLIPR assay. The series is classed as functional, cell-based.
For series [3], the species on record is Rattus norvegicus. Put plainly: Neurotoxicity in Harlan Sprague-Dawley rat assessed as minimal motor impairment up to 4 hrs by rotorod test. Format: toxicity, organism-based. The settings on record: in vivo.
Series [4] relates to Rattus norvegicus. Put plainly: Analgesic activity in po dosed fasted Harlan Sprague-Dawley rat assessed as inhibition of late phase of formalin- induced paw-licking pain behavior. The series is classed as functional.
A short description of series [5]: Drug uptake in Harlan Sprague-Dawley rat brain at 10 mg/kg, po after 24 hrs. Format: ADME, organism-based. More on the design: dose 10 mg/kg, route oral. The settings on record: read-out: Drug uptake.
Series [6] can be described thus: Drug uptake in Harlan Sprague-Dawley rat brain at 10 mg/kg, po after 4 hrs. More on the design: dose 10 mg/kg, route oral. Format: ADME, organism-based. Conditions: read-out: Drug uptake.
A short description of series [7]: Drug uptake in Harlan Sprague-Dawley rat brain at 10 mg/kg, po after 6 hrs. The series is classed as ADME, organism-based. Further details: dose 10 mg/kg, route oral. The settings on record: read-out: Drug uptake.
Series [8] can be described thus: Drug uptake in Harlan Sprague-Dawley rat brain at 10 mg/kg, po after 2 hrs. The series is classed as ADME, organism-based. More on the design: dose 10 mg/kg, route oral. The settings on record: read-out: Drug uptake.
Series [9] is described as follows: Drug uptake in Harlan Sprague-Dawley rat brain at 10 mg/kg, po after 0.5 hrs. Further details: dose 10 mg/kg, route oral. Conditions: read-out: Drug uptake. Format: ADME, organism-based.
Series [10] in a line: Drug uptake in Harlan Sprague-Dawley rat brain at 10 mg/kg, po after 1 hr. The series is classed as ADME, organism-based. Further details: dose 10 mg/kg, route oral. Conditions: read-out: Drug uptake.
In series [11] the test system is Rattus norvegicus. In words: Ex vivo receptor occupancy of mGlu5 receptor in Harlan Sprague-Dawley rat brain at 10 mg/kg, po after 24 hrs. Format: functional.
The subject of series [12] is Rattus norvegicus. Put plainly: Ex vivo receptor occupancy of mGlu5 receptor in Harlan Sprague-Dawley rat brain at 10 mg/kg, po after 6 hrs. Format: functional.
The test system of series [13] is Rattus norvegicus. Put plainly: Ex vivo receptor occupancy of mGlu5 receptor in Harlan Sprague-Dawley rat brain at 10 mg/kg, po after 4 hrs. Format: functional.
Series [14] deals with Rattus norvegicus. In words: Ex vivo receptor occupancy of mGlu5 receptor in Harlan Sprague-Dawley rat brain at 10 mg/kg, po after 2 hrs. The series is classed as functional.
The test system of series [15] is Rattus norvegicus. Put plainly: Ex vivo receptor occupancy of mGlu5 receptor in Harlan Sprague-Dawley rat brain at 10 mg/kg, po after 1 hr. Format: functional.
The subject of series [16] is Rattus norvegicus. In words: Ex vivo receptor occupancy of mGlu5 receptor in Harlan Sprague-Dawley rat brain at 10 mg/kg, po after 0.5 hrs. Format: functional.
In series [17] the test system is Rattus norvegicus. Put plainly: Ex vivo receptor occupancy of mGlu1 receptor in Harlan Sprague-Dawley rat brain up to 10 mg/kg, po. Format: functional, organism-based. More on the design: dose 10 mg/kg.
The subject of series [18] is Rattus norvegicus. In words: Ex vivo receptor occupancy of mGlu5 receptor in po dosed Harlan Sprague-Dawley rat brain. Format: functional.
A short description of series [19]: Bioavailability in Harlan Sprague-Dawley rat at 1.5 mg/kg, po and 1 mg/kg, iv. Format: ADME, organism-based. Conditions: in vivo.
Series [20] can be described thus: Clearance in Harlan Sprague-Dawley rat at 1.5 mg/kg, po and 1 mg/kg, iv. Format: ADME, organism-based. Conditions: in vivo.
Series [21] is described as follows: Volume of distribution in Harlan Sprague-Dawley rat at 1.5 mg/kg, po and 1 mg/kg, iv. The settings on record: in vivo. The series is classed as ADME, organism-based.
The nature of series [22]: Elimination half life in Harlan Sprague-Dawley rat at 1.5 mg/kg, po. The series is classed as ADME, organism-based. More on the design: dose 1.5 mg/kg, route oral. Conditions: in vivo, read-out: beta t1/2 (converted).
Series [23] in a line: Elimination half life in Harlan Sprague-Dawley rat at 1 mg/kg, iv. Format: ADME, organism-based. Conditions: in vivo, read-out: beta t1/2 (converted). More on the design: dose 1 mg/kg, route intravenous.
Series [24] in a line: Tmax in Harlan Sprague-Dawley rat at 1.5 mg/kg, po. The settings on record: in vivo. More on the design: dose 1.5 mg/kg, route oral. The series is classed as ADME, organism-based.
A short description of series [25]: AUC (0 to 24 hrs) in Harlan Sprague-Dawley rat at 1.5 mg/kg, po. Conditions: plasma. More on the design: time < 24 hr, dose 1.5 mg/kg, route oral. Format: ADME, organism-based.
Series [26] is described as follows: Cmax in Harlan Sprague-Dawley rat at 1.5 mg/kg, po. Format: ADME, organism-based. Further details: dose 1.5 mg/kg, route oral. The settings on record: in vivo.
Series [27] concerns the target T1, 5-hydroxytryptamine receptor 2B (Homo sapiens, UniProt P41595). In words: Binding affinity to 5HT2B receptor (unknown origin).
Series [28] addresses Metabotropic glutamate receptor 5 (Rattus norvegicus, UniProt P31424). In words: Negative allosteric modulation of rat mGlu5 receptor.
Series [29] deals with T1, 5-hydroxytryptamine receptor 2B. Conditions: 1 uM.
Description: Inhibition of 5HT2B receptor (unknown origin) at 1 uM

The structures appear in SMILES notation. Activity calls are given as the source filed them. The rule behind the calls is not given here.

For orientation: IC50 means the point on the concentration scale where inhibition reaches its midpoint. By ED50 is commonly meant the dose that gives a 50% effect, or the effect in half of the subjects. As a reminder, the inhibition is the drop in the measured response relative to a control, in per cent. Broadly, the bioavailability is the share of a dose that reaches the circulation, judged against a reference dose that is usually intravenous. Low readings indicate poor availability, high ones good availability. In general, Tmax refers to the time from dosing to the highest level. Usually AUC(0-t) stands for exposure summed from dosing to a finite time, without extrapolation to infinity. A low value points to low exposure. Broadly, the Cmax is the peak of the concentration-time curve. Usually Ki stands for the dissociation constant of the complex between target and ligand, obtained from inhibition or displacement. A high value points to lower affinity.

Chain of Metabotropic glutamate receptor 5 (Homo sapiens, UniProt P41594) (P41594 whole entry): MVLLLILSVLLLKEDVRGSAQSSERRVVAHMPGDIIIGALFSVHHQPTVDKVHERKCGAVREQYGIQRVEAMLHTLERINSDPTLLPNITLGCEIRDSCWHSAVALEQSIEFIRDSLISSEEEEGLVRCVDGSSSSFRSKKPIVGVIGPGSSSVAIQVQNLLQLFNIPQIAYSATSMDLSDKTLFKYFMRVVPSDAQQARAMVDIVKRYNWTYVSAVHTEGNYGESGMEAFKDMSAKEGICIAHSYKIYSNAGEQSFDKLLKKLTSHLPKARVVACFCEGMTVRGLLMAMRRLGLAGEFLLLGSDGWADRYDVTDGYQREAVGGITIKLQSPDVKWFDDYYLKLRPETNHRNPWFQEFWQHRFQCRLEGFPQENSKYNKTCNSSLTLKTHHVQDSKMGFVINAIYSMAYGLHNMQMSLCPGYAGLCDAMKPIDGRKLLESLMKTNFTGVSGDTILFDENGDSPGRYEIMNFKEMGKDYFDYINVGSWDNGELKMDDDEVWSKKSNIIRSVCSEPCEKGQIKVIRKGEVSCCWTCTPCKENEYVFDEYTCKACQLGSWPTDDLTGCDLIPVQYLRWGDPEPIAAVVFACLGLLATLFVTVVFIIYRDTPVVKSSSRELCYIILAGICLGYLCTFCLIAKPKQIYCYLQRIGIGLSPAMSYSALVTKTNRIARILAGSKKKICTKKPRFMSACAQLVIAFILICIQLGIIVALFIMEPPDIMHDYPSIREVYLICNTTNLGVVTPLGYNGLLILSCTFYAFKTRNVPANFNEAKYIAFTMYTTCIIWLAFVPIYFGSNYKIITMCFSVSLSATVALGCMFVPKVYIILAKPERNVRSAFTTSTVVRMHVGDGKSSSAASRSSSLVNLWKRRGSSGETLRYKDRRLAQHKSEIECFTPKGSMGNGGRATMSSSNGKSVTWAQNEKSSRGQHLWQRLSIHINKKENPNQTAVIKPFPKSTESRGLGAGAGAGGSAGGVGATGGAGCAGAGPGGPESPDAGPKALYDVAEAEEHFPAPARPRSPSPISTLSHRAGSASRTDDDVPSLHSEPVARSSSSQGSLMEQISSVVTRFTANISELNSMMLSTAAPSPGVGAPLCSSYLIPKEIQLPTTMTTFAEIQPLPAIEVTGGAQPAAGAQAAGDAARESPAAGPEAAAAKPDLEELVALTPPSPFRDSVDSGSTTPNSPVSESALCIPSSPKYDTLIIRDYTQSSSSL
Chain of Metabotropic glutamate receptor 1 (Q13255 whole entry): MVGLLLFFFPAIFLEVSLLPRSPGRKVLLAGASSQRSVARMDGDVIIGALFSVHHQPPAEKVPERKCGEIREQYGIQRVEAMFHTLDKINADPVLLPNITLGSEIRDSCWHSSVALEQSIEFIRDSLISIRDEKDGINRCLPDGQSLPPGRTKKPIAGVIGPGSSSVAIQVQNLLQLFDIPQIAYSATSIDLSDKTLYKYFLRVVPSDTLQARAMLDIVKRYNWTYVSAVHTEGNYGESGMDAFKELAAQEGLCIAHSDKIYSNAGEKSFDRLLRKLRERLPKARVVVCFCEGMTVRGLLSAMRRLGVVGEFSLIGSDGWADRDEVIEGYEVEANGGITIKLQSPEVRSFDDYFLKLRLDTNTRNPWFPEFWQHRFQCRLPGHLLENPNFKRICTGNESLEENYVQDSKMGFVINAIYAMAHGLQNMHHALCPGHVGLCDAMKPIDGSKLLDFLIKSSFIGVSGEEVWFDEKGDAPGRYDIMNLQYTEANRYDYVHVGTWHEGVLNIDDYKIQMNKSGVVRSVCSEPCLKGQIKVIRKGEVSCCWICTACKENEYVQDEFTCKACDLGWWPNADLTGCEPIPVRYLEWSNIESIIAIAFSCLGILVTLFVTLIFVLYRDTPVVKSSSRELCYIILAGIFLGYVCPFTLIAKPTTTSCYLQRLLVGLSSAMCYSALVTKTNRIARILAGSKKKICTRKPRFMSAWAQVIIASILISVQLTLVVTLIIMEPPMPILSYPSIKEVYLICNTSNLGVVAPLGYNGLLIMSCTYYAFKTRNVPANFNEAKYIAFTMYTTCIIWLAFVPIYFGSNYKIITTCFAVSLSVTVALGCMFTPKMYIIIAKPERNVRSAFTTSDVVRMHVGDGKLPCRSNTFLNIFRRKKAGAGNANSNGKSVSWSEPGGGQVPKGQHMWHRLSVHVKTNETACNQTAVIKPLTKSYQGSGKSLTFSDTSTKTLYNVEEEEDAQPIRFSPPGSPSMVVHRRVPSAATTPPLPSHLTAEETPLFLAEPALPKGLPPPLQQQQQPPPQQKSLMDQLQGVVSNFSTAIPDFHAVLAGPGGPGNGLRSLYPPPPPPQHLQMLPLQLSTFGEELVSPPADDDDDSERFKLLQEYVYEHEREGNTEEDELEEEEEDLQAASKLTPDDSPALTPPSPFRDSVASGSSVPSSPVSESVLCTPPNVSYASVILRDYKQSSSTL
T1 sequence (P41595 whole entry): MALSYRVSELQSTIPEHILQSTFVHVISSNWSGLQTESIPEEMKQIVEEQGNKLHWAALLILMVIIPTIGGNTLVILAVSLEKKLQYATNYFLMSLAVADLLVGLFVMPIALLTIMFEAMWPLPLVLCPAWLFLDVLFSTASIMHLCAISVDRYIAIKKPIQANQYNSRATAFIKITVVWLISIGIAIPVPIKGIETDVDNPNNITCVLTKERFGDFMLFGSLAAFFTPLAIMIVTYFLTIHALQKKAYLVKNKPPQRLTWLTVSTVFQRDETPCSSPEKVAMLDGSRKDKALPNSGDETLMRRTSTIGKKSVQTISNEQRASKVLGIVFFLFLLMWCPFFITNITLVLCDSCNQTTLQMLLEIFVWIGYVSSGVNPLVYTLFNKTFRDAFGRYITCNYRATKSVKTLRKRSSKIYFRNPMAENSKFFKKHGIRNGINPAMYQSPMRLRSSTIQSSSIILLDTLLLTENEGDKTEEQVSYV
Chain of Metabotropic glutamate receptor 5 (Rattus norvegicus, UniProt P31424) (P31424 whole entry): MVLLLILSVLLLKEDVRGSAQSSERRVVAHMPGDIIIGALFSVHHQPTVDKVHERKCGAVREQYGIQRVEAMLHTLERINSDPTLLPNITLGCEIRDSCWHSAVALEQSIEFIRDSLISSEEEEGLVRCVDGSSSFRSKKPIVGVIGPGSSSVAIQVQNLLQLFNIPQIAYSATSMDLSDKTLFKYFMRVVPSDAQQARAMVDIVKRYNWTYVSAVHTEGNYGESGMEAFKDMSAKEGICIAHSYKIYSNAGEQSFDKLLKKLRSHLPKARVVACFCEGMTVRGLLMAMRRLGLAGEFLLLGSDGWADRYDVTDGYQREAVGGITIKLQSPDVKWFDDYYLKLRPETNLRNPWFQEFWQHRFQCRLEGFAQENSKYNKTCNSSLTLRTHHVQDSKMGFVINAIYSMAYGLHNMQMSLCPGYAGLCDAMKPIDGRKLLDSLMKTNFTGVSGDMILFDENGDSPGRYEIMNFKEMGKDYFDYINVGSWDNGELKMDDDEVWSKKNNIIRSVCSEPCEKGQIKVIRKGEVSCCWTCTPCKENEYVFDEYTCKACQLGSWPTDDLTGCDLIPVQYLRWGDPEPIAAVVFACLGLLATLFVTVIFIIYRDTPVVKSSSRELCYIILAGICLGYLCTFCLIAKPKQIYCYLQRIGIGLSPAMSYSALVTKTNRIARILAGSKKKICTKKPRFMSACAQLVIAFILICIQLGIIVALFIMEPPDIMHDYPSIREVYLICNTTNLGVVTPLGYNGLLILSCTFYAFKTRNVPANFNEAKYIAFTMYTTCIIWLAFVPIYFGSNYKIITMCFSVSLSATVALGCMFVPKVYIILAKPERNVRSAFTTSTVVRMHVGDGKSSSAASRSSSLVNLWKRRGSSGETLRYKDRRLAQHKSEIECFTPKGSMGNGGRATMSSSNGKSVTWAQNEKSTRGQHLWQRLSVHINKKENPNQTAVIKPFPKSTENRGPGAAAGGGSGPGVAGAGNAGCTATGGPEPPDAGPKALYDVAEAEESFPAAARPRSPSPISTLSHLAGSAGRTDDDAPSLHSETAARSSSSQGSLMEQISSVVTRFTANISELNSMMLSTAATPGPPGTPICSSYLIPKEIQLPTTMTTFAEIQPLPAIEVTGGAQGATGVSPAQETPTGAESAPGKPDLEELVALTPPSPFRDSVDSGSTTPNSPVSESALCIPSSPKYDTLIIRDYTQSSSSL

Turning to `C[C@@H]1C[C@H]1C(=O)Nc1snc(-c2ccc3nn(C)cc3c2)c1-c1cccc(C2CC2)n1`, the Ratio IC50 in the series listed under Homo sapiens amounted to 25. Moreover, the IC50 in series [1] was 0.735 µM; in series [2], 0.03 µM.

As for `C[C@@H]1C[C@H]1C(=O)Nc1snc(-c2ccc3nn(C)cc3c2)c1-c1ccccn1`, the Ratio IC50 in the series listed under Homo sapiens is 8. The results for the IC50 in series [1] and in series [2] were 0.238 µM and 0.029 µM, respectively.

With `CC[C@@H]1C[C@H]1C(=O)Nc1snc(-c2ccc3nn(C)cc3c2)c1-c1cccc(N(C)C)n1`, the Ratio IC50 in the series filed under Homo sapiens is greater than 357. Also, the values for the IC50 in series [1] and in series [2] were greater than 12.5 µM and 0.035 µM, respectively.

Consider `CCc1cccc(-c2c(-c3ccc4nn(C)cc4c3)nsc2NC(=O)[C@@H]2C[C@H]2C)n1`, for which, in the series filed under Homo sapiens, the Ratio IC50 amounted to 28. Besides, the IC50 was found to be 0.279 µM in series [1] and 0.01 µM in [2].

With `CC(C)c1cccc(-c2c(-c3ccc4nn(C)cc4c3)nsc2NC(=O)[C@@H]2C[C@H]2C)n1.Cl`, the Activity result in the series listed under Rattus norvegicus [3] was “Non-toxic”; in the series on Rattus norvegicus [11], 58.9%; with Rattus norvegicus [12], 62.5%; in the series with Rattus norvegicus [13], 67.7%; in the series on Rattus norvegicus [14], 74.3%; with Rattus norvegicus [15] it was 57.8%. Moreover, the Activity was 37.8% in the series on Rattus norvegicus [16] and “Dose-dependent effect” in the series with Rattus norvegicus [18]. Moreover, the ED50 was 25.5 mg/kg in the series with Rattus norvegicus [4] and 2.1 mg/kg with Rattus norvegicus [18]. The inhibition result with Rattus norvegicus [4] is “Dose-dependent effect”; in series [29] it was 56%. Also, the concentration at 24 h in [5] was 2340 nM. Moreover, the concentration at 4 h in series [6] was found to be 2590 nM. Also, the concentration at 6 h in series [7] was 2980 nM. In series [8], the concentration at 2 h worked out at 2850 nM. Also, the concentration at 0.5 h in series [9] was 1240 nM. The concentration at 1 h in series [10] worked out at 2230 nM. Moreover, the outcome in the series on Rattus norvegicus [17] was inactive. This molecule came in with a bioavailability in series [19] of 56.5%. Moreover, the clearance in series [20] is 8.4 mL/min/kg. The Vd in [21] came to 2.7 L/kg. Further, the half-life in series [22] was 4.6 h; in [23], 4.9 h. Further, the Tmax in [24] was determined as 2 h. This molecule also came in with an AUC(0-t) at 24 h in series [25] of 1570 ng·h/mL. In [26], this molecule came in with a Cmax of 255 ng/mL. In addition, the affinity in series [27], expressed as Ki, was 3.16 µM. Besides, the figures for the IC50 in series [28], in [1] and in series [2] were 0.167 µM, 0.644 µM and 0.019 µM, respectively. Moreover, the Ratio IC50 in the series filed under Homo sapiens came to 34.

Take `C[C@@H]1C[C@H]1C(=O)Nc1snc(-c2ccc3nn(C)cc3c2)c1-c1cccc(C(F)F)n1`: the Ratio IC50 in the series filed under Homo sapiens is 13. Also, the IC50 in series [1] was determined as 1.02 µM; in series [2], 0.081 µM.

On to `COc1ccc(-c2nsc(NC(=O)[C@@H]3C[C@H]3C)c2C)cc1`, for which the Ratio IC50 in the series listed under Homo sapiens is greater than 20.

As to `CC(C)c1cccc(-c2c(-c3ccc4n[nH]cc4c3)nsc2NC(=O)[C@@H]2C[C@H]2C)n1`, the Ratio IC50 in the series listed under Homo sapiens worked out at 102. Besides, the IC50 came out at 4.57 µM in series [1] and 0.045 µM in series [2].

For the molecule `C[C@@H]1C[C@H]1C(=O)Nc1snc(-c2ccc3nn(C)cc3c2)c1-c1cccc(C2CCC2)n1`, in the series listed under Homo sapiens, the Ratio IC50 was 13. Besides, the IC50 in [1] stood at 0.687 µM; in series [2] it was 0.054 µM.

On to `C[C@@H]1C[C@H]1C(=O)Nc1snc(-c2ccc3nn(C)cc3c2)c1-c1cccc(C2CCCC2)n1`, for which the Ratio IC50 in the series listed under Homo sapiens was found to be 33. For the same molecule, the IC50 was found to be 0.891 µM in [1] and 0.027 µM in series [2].

With `CCCc1cccc(-c2c(-c3ccc4nn(C)cc4c3)nsc2NC(=O)[C@@H]2C[C@H]2C)n1`, the Ratio IC50 in the series listed under Homo sapiens was determined as 20. The IC50 in [1] is 0.409 µM; in series [2], 0.02 µM.

Take `C[C@@H]1C[C@H]1C(=O)Nc1snc(-c2ccc3n[nH]cc3c2)c1-c1cccc(N(C)C)n1`: the Ratio IC50 in the series filed under Homo sapiens is greater than 266. Also, the IC50 in [1] is greater than 12.5 µM; in series [2] it was 0.047 µM.

Turning to `COc1cccc(-c2c(-c3ccc4nn(C)cc4c3)nsc2NC(=O)[C@@H]2C[C@H]2C)n1`, the Ratio IC50 in the series listed under Homo sapiens came out at 5. In addition, the IC50 in [1] was found to be 0.19 µM; in [2], 0.036 µM.

`C[C@@H]1C[C@H]1C(=O)Nc1snc(-c2ccc3nn(C)cc3c2)c1-c1cccc(CF)n1`: in the series filed under Homo sapiens, the Ratio IC50 was found to be 26. Also, the IC50 was determined as 1.3 µM in series [1] and 0.05 µM in [2].

In the case of `CC(C)c1cccc(-c2c(-c3ccc4nn(C)cc4c3)nsc2NC(=O)C2CC2)n1`, the Ratio IC50 in the series filed under Homo sapiens is 10. The IC50 came out at 0.397 µM in [1] and 0.039 µM in [2].

As to `Cc1cccc(-c2c(-c3ccc4nn(C)cc4c3)nsc2NC(=O)[C@@H]2C[C@H]2C)n1`, the Ratio IC50 in the series filed under Homo sapiens was found to be 49. For the same molecule, the IC50 in [1] was determined as 2.21 µM; in series [2] it was 0.045 µM.

In the case of `CNc1cccc(-c2c(-c3ccc4nn(C)cc4c3)nsc2NC(=O)[C@@H]2C[C@H]2C)n1`, the Ratio IC50 in the series filed under Homo sapiens stood at 26. Further, the IC50 in [1] is 1.59 µM; in series [2] it was 0.062 µM.

`C[C@@H]1C[C@H]1C(=O)Nc1snc(-c2ccc3nn(C)cc3c2)c1-c1cccc(N(C)C)n1`: the Ratio IC50 in the series listed under Homo sapiens was 477. Moreover, the IC50 was 9.54 µM in [1] and 0.02 µM in [2].

For `CCc1cccc(-c2c(-c3ccc4n[nH]cc4c3)nsc2NC(=O)[C@@H]2C[C@H]2C)n1`, the Ratio IC50 in the series listed under Homo sapiens came out at 86. The IC50 in series [1] was found to be 3.11 µM; in series [2] it was 0.036 µM.
